For the assay, the system named is mushroom tyrosinase. The assay is described as follows: Tyrosinase inhibition test (L-DOPA oxidation, absorbance at 470 nm). The format is biochemical. The note with it: single compound, Concentration 0.1%. The text has this: The tyrosinase inhibition test was used to determine the tyrosinase inhibition ability of the compounds. The test comprises adding the test compound to a solution of L-dihydroxyphenylalanine (L-(DOPA)) and mushroom tyrosinase. L-(DOPA) is converted to […] by the mushroom tyrosinase, causing a brown colour to form. Inhibition of this reaction prevents the brown colour formation. The lighter the colour at the end of the reaction, the stronger is the inhibitory effect of the active. Absorbance data may be collected using a plate reacted set up to have a kinetic read every 1 minute for 30 minutes, where absorbance is read at 470 nm.

As for `O=C(O)C(O)c1ccccc1` (centres unmarked) [B, Mandelic acid], the “Tyrosinase Inhibition (%)” value turned out to be 80.279%. Under `C=C(C)[C@@H]1CCC(C)=C[C@H]1c1c(O)cc(CCCCC)cc1O` [G, Cannabidiol isolate (CBD)] stands 9.134%. In the case of `CC1(C)[C@@H](O[C@H]2O[C@H](C(=O)[O-])[C@@H](O)[C@H](O)[C@H]2O[C@@H]2O[C@H](C(=O)[O-])[C@@H](O)[C@H](O)[C@H]2O)CC[C@]2(C)[C@H]3C(=O)C=C4[C@@H]5C[C@@](C)(C(=O)O)CC[C@]5(C)CC[C@@]4(C)[C@]3(C)CC[C@@H]12.[K+].[K+]` [H, Dipotassium glycyrrhizate (DPG)], the “Tyrosinase Inhibition (%)” value is given as 54.567%. For `CCCCCCCCCCCCCCC[C@@H](O)[C@@H](N)CO` [K, Sphinganine] the value was -5.78%; for Feruloyl oligopeptide-33, 41.765%.
